{"source": "patent US5436273A", "about": "“Psychoactive propargylamine derivatives used in the treatment of anxiety, psychotic states or aggression” (Lowchol Scientific, Inc., priority 1993, dated 1995)", "key": {"in vivo": {"assay": "in vivo", "settings": "mouse, ip"}, "[1]": {"assay": "Vapor pressure at room temperature", "assay_type": "physicochemical", "settings": "free base"}, "[2]": {"test_system": "spontaneous motor activity in mice", "assay": "Inhibition of spontaneous motor activity in mice", "assay_type": "in vivo, CD #1 mice", "settings": "for ED50: Mus musculus, ip, 0.5 h, i.p., 30 minutes", "description": "4. Inhibition of Spontaneous Motor Activity in Mice\nFemale CD #1 mice (20-30 g) are used for this experiment. The effect of the compound to be studied on spontaneous activity was evaluated by an automated […] XYZ system. This system allows the simultaneous quantification of the following parameters:\nnumber of stereotypic movements;\nnumber of vertical movements;\nnumber of clockwise revolutions; and\nnumber of counterclockwise revolutions.\nTwo animals are studied simultaneously, one treated and one control. After a 2 hour period of acclimatization to the room, a first activity count of 10 minutes duration is perfomed. The compound to be studied is then administered i.p. and the spontaneous activity is reevaluated 30 minutes later over a period of 10 minutes."}, "[3]": {"test_system": "isolation induced aggressive behavior in mice", "assay": "Inhibition of isolation induced fighting behavior in mice", "assay_type": "in vivo, CD #1 mice", "settings": "i.p.", "description": "1. Inhibition of Isolation Induced Fighting Behavior in Mice\nAfter this period of confinement, the animals usually develop a marked intraspecific aggressive behavior when they are placed in the same cage.\nThe compound to be studied is administered i.p. to the selected groups (N=8 pairs/dose×5 doses) and the aggressive behavior is tested again 30 minutes later. […] A one week washout period is allowed between treatments."}, "[4]": {"test_system": "aggressive behavior in combative mice", "assay": "Inhibition of aggressive behavior in combative mice at various times (correlation with plasma concentration)", "assay_type": "in vivo", "settings": "10 mg/kg i.p.; for inhibition at 10 mg/kg: Mus musculus, ip", "description": "The mice are placed together, in pairs, for 5 minutes. This pairing is performed 10, 25, 55, 85 and 115 minutes after the administration of compound N^o 3. One minute after each of the 5 minute periods of placing the animals together, three pairs of animals are anesthetized with ether and guillotined in order to determine the concentration of compound N^o 3 in the plasma. The plasma sample is prepared by centrifugation (16,000 G) of 800 μl of blood to which 50 μl of EDTA Na4 (0.1M) is added. The inhibition of aggressive behavior at the different times in which the animals are placed together and the number of pairs evaluated is shown in the following Table: […]"}}, "note": "Entries after “also recorded” stand apart in the source; their conditions may differ. Read-outs that look alike come from different tables or passages of the source."}
{"smiles": "C#CC(C)N", "note": "(centres unmarked) [Compound 3, 2-Amino-3-butyne]", "values": [{"measurement": "TD50 at 0.5 h", "setting": "in vivo", "value": 720, "unit": "mg/kg"}, {"measurement": "vapor pressure (in words)", "setting": "[1]", "value": "high vapor pressure at room temperature"}, {"measurement": "inhibition of spontaneous motor activity (in words)", "setting": "[2]", "value": "more active than buspirone in mice"}, {"measurement": "ED50", "setting": "[2]; read-out: ED50, clockwise revolutions", "value": "3.3 ± 1.6", "unit": "mg/kg"}, {"measurement": "ED50", "setting": "[2]; read-out: ED50, counterclockwise revolutions", "value": "2.7 ± 1.9", "unit": "mg/kg"}, {"measurement": "ED50", "setting": "[2]; read-out: ED50, horizontal activity", "value": "4.3 ± 2.2", "unit": "mg/kg"}, {"measurement": "ED50", "setting": "[2]; read-out: ED50, movement time", "value": "8.1 ± 4.5", "unit": "mg/kg"}, {"measurement": "ED50", "setting": "[2]; read-out: ED50, number of movements", "value": "11.8 ± 5.9", "unit": "mg/kg"}, {"measurement": "ED50", "setting": "[2]; read-out: ED50, number of stereotypic movements", "value": "5.5 ± 2.2", "unit": "mg/kg"}, {"measurement": "ED50", "setting": "[2]; read-out: ED50, stereotypy time", "value": "3.8 ± 1.6", "unit": "mg/kg"}, {"measurement": "ED50", "setting": "[2]; read-out: ED50, total distance", "value": "5.5 ± 3.4", "unit": "mg/kg"}, {"measurement": "ED50", "setting": "[2]; read-out: ED50, vertical activity", "value": "2.5 ± 1.2", "unit": "mg/kg"}, {"measurement": "ED50", "setting": "[2]; read-out: ED50, vertical movements", "value": "3.2 ± 1.6", "unit": "mg/kg"}, {"measurement": "ED50", "setting": "[2]; read-out: ED50, vertical time", "value": "2.6 ± 1.5", "unit": "mg/kg"}, {"measurement": "ED50", "setting": "[3]; Mus musculus, ip, 0.5 h, read-out: ED50 (dose that suppressed aggressive behavior in 50% of the animals), 30 minutes after administration, probit analysis", "value": 8, "unit": "mg/kg"}, {"measurement": "inhibition of aggressive behavior (in words)", "setting": "[3]; mice", "value": "particularly potent inhibitors"}, {"measurement": "antiaggressive activity over time (in words)", "setting": "[4]", "value": "noticeable activity after a few minutes; also recorded: activity is maximal when the plasma concentration is no longer detectable"}, {"measurement": "time of maximum antiaggressive activity", "setting": "[4]", "value": 60, "unit": "min"}, {"measurement": "inhibition at 10 mg/kg", "setting": "[4]; 0.5 h, 30 min, 12 pairs", "value": 87.5, "unit": "%"}, {"measurement": "inhibition at 10 mg/kg", "setting": "[4]; 1 h, 60 min, 9 pairs", "value": 100, "unit": "%"}, {"measurement": "inhibition at 10 mg/kg", "setting": "[4]; 1.5 h, 90 min, 3 pairs", "value": 100, "unit": "%"}, {"measurement": "inhibition at 10 mg/kg", "setting": "[4]; 2 h, 120 min, 3 pairs", "value": 100, "unit": "%"}, {"measurement": "inhibition at 10 mg/kg", "setting": "[4]; 15 min, 15 pairs", "value": 75, "unit": "%"}]}
